From patent US4268630A, “Microbiological production of ketones from C3 -C6 alkanes” (priority 1979, dated 1981)
“Also recorded” adds a separate entry of the source. Where two headings read alike, the source gives them in different places.

Experiments:
[1] = system: Methylobacterium organophilum XX (ATCC 27886); test: Oxidation of sec-alcohols to ketones by resting cell suspension; type: cell-based
Method: (§1) The pH of the nutrient medium was adjusted to 7.0 by the addition of acid or base and 50 ml. samples of the nutrient medium were charged into a plurality of 300 ml. shaker flasks. The shaker flasks were inoculated with an inoculating loop of cells from an agar plate containing homogeneous colonies of the microorganisms on the plate (the purity of the isolates was confirmed by microscopic examination). The isolates had been maintained on methanol (0.4% V/V) agar plates or on agar plates under an atmosphere of methane and air having a 1:1 V/V gas ratio which had been transferred every two weeks. For growth on methanol, the medium was supplemented with 0.4% methanol. For growth on methane, the gaseous phase of the inoculated flasks was replaced with a gas mixture comprised on methane and air having a ratio of 1:1 on a V/V basis. The inoculated flasks were sealed air-tight and were incubated on a rotary shaker of orbital radius 2.5 cm. at 250 rpm and at 30° C. for two days until turbidity in the medium had developed. The cells were harvested by centrifugation at 10,000×g. at 4° C. for 30 minutes. The cell pellet was washed twice with a 0.05 M phosphate buffer at a pH of 7.0 (containing 0.02 M MgCl2). The washed cells were then suspended in a 0.05 M phosphate buffer at pH 7.0.
(§2) A 0.5 ml. sample of each washed cell suspension (2 mg. cells) was put into 10 ml. vials at 4° C. which were sealed with a rubber cap. The gaseous phase of the vials was removed with vacuum and then was replaced with a gas mixture of the substrate reactant (i.e., alkane or secondary alcohol) and oxygen at a 1:1 V/V ratio. (In the case of a liquid substrate, i.e., secondary alcohol, 10 μl of the substrate was put in the 10 ml. vials). […] Samples of product (1-3 μl) were withdrawn periodically with a microsyringe and the products were analyzed by gas chromatography (ionization flame detector column).
(§3) The procedure in Example 1 was repeated wherein a plurality of the methane-utilizing methylotrophic microorganisms were each grown aerobically in a nutrient medium containing methane as the alcohol dehydrogenase enzyme inducer and as the major carbon and energy source for growth. The cells were harvested and washed as described in Example 1. The resting microbial cells of the induced methane-grown methane-utilizing methylotrophic microorganisms were then contacted with C3 -C6 secondary alcohols in a buffered solution by the procedure of Example 1.
(§4) In this example, the procedure in Example 1 was repeated except that a plurality of methane-utilizing methylotrophic microorganisms were each aerobically grown in a methanol-containing nutrient medium instead of a methane-containing medium. The nutrients in the medium were the same as indicated in Example 1 except that 0.4% V/V methanol was used as the alcohol dehydrogenase inducer and major source of carbon and energy for growth. Following growth, the cells were harvested and washed as described in Example 1. The resting cells of the induced methanol-grown methylotrophic microorganisms were then contacted with secondary alcohols in a buffered solution by the procedure described in Example 1.
(§5) The procedure in Example 1 was repeated except that the methylotrophic microorganisms were each aerobically grown in an alcohol dehydrogenase-inducing growth medium containing methylamine or methyl formate as the alcohol dehydrogenase enzyme inducer and growth substrate instead of methane. The nutrients in the medium were the same as indicated in Example 1 except that 0.4% V/V of the alcohol dehydrogenase-inducer growth substrate was used as the major carbon and energy source. The cells were harvested and washed as described in Example 1. The resting microbial cells were then contacted with C3 -C6 secondary alcohols in a buffered solution by the conversion procedure of Example 1.

[2] = system: Methylosinus trichosporium OB3b (NRRL B-11,196); test: as above; type: cell-based
Method: as §1, §2, §3, §4, §5

[3] = system: Methylocystis parvus OBBP (NRRL B-11,198); test: as above; type: cell-based
Method: as §1, §2, §3, §4

[4] = system: Methylobacter capsulatus Y (NRRL B-11,201); test: as above; type: cell-based
Method: as §1, §2, §3, §4

[5] = system: Methylococcus capsulatus, Texas (ATCC 19069); test: as above; type: cell-based
Method: as §1, §2, §3, §4

[6] = system: Methylomonas methanica S1 (NRRL B-11,199); test: as above; type: cell-based
Method: as §1, §2, §3, §4

[7] = system: cell extracts of Candida utilis ATCC 26,387; test: NAD+-dependent oxidation of secondary alcohols by cell extracts of yeasts; type: biochemical; details: for Conversion Rate, secondary alcohol to methylketone: cell extracts, grown on methanol, NAD+, gas chromatography
[8] = system: Hansenula polymorpha ATCC 26012; test: Oxidation of sec-alcohols to ketones by cell suspensions of yeasts; type: cell-based
[9] = system: cell suspensions of C1-utilizers; test: Production of 2-butanone from 2-butanol / sec-alcohol oxidation by cell suspensions of the strains tested; type: cell-based; details: cell suspensions of C1-utilizers
From the text: The substrate specificity for the oxidation of C3 -C6 secondary alcohols by the strains of C1 -utilizers was studied.

[10] = system: Methanomonas methylovora ATCC 21852; test: Oxidation of sec-alcohols to ketones by resting cell suspension; type: cell-based
Method: as §1, §2
(§6) The procedure in Example 1 was repeated except that a plurality of methanol-utilizing methylotrophic microorganisms were each aerobically grown in a methanol-containing nutrient medium instead of a methane-containing medium. The nutrients in the medium were the same as indicated in Example 1 except that 0.4% V/V methanol was used as the alcohol dehydrogenase inducer and as the major carbon and energy source for growth. The cells were harvested and washed as described in Example 1. The resting microbial cells of the induced methanol-grown methanol-utilizing methylotrophic microorganisms were then contacted with C3 -C6 secondary alcohols in a buffered solution by the procedure of Example 1.
as §5

[11] = system: Pseudomonas sp. ATCC 21438; test: as above; type: cell-based
Method: as §1, §2, §6, §5

[12] = system: Candida utilis ATCC 26387; test: Oxidation of sec-alcohols to ketones by cell suspensions of yeasts; type: cell-based
[13] = system: cell extracts of Pichia sp. NRRL Y-11,328; test: NAD+-dependent oxidation of secondary alcohols by cell extracts of yeasts; type: biochemical; details: grown on methanol, gas chromatography
[14] = system: secondary alcohol dehydrogenase; test: Activity of purified yeast-derived secondary alcohol dehydrogenase; type: biochemical, Pichia sp. NRRL Y-11,328
[15] = system: cell extracts of Kloeckera sp. strain A2 NRRL Y-11,420; test: NAD+-dependent oxidation of secondary alcohols by cell extracts of yeasts; type: biochemical; details: for Conversion Rate, secondary alcohol to methylketone: cell extracts, grown on methanol, NAD+, gas chromatography
[16] = spectrophotometric, 2-butanol as substrate

| Structure (SMILES) | Conversion Rates, sec-alcohol to methyl ketone ([1]; cells grown on methanol) | Conversion Rates, sec-alcohol to methyl ketone ([1]; methyl formate-grown) | Conversion Rates, sec-alcohol to methyl ketone ([1]; resting cells grown on methane) | Conversion Rates, sec-alcohol to methyl ketone ([2]; cells grown on methanol) | Conversion Rates, sec-alcohol to methyl ketone ([2]; methyl formate-grown) | Conversion Rates, sec-alcohol to methyl ketone ([2]; resting cells grown on methane) | Conversion Rates, sec-alcohol to methyl ketone ([3]; cells grown on methanol) | Conversion Rates, sec-alcohol to methyl ketone ([3]; resting cells grown on methane) | Conversion Rates, sec-alcohol to methyl ketone ([4]; cells grown on methanol) | Conversion Rates, sec-alcohol to methyl ketone ([4]; resting cells grown on methane) | Conversion Rates, sec-alcohol to methyl ketone ([5]; cells grown on methanol) | Conversion Rates, sec-alcohol to methyl ketone ([5]; resting cells grown on methane) | Conversion Rates, sec-alcohol to methyl ketone ([6]; cells grown on methanol) | Conversion Rates, sec-alcohol to methyl ketone ([6]; resting cells grown on methane) | Conversion Rate, secondary alcohol to methylketone [7] | Conversion Rate, sec-alcohol to ketone ([8]; growth substrate Ethanol) | Conversion Rate, sec-alcohol to ketone ([8]; growth substrate Methanol) | Conversion Rate, sec-alcohol to ketone ([8]; growth substrate Methylamine) | Conversion Rate, sec-alcohol to ketone ([8]; growth substrate Methylformate) | Conversion Rate, sec-alcohol to ketone ([8]; growth substrate Propylamine) | also measured |
| --- | --- | --- | --- | --- | --- | --- | --- | --- | --- | --- | --- | --- | --- | --- | --- | --- | --- | --- | --- | --- | --- |
| CCC(C)O (stereo not drawn) [2-Butanol, 2-butanol] | 2.8 μmoles/hr/mg protein | 3.5 μmoles/hr/mg protein | 2.5 μmoles/hr/mg protein | 4.1 μmoles/hr/mg protein | 4.5 μmoles/hr/mg protein | 3.7 μmoles/hr/mg protein | 1.0 μmoles/hr/mg protein | 1.1 μmoles/hr/mg protein | 1.5 μmoles/hr/mg protein | 0.84 μmoles/hr/mg protein | 0.70 μmoles/hr/mg protein | 0.60 μmoles/hr/mg protein | 0.40 μmoles/hr/mg protein | 0.39 μmoles/hr/mg protein | 4.92 μmoles/hr/mg Protein | 4.8 μmoles/hr/mg of protein | 5.8 μmoles/hr/mg of protein | 4.5 μmoles/hr/mg of protein | 5.2 μmoles/hr/mg of protein | 4.0 μmoles/hr/mg of protein | specific activities [7, 16]: 78 nmoles NAD^+ reduced per min. per mg. protein; substrate specificity: rate of oxidation of secondary alcohols (in words) [9]: oxidized at the highest rate; also recorded: oxidized at higher rates; Conversion Rates, sec-alcohol to methyl ketone ([10]; methanol-grown, obligate): 2.5 μmoles/hr/mg protein; Conversion Rates, sec-alcohol to methyl ketone ([10]; methyl formate-grown): 2.1 μmoles/hr/mg protein; Conversion Rates, sec-alcohol to methyl ketone ([10]; methylamine-grown): 3.2 μmoles/hr/mg protein; Conversion Rates, sec-alcohol to methyl ketone ([11]; methanol-grown, facultative): 3.2 μmoles/hr/mg protein; Conversion Rates, sec-alcohol to methyl ketone ([11]; methyl formate-grown): 3.2 μmoles/hr/mg protein; Conversion Rates, sec-alcohol to methyl ketone ([11]; methylamine-grown): 2.1 μmoles/hr/mg protein; Conversion Rate, sec-alcohol to ketone ([12]; growth substrate Ethanol): 5.2 μmoles/hr/mg of protein; Conversion Rate, sec-alcohol to ketone ([12]; growth substrate Methanol): 6.8 μmoles/hr/mg of protein; Conversion Rate, sec-alcohol to ketone ([12]; growth substrate Methylamine): 5.0 μmoles/hr/mg of protein; Conversion Rate, sec-alcohol to ketone ([12]; growth substrate Methylformate): 6.2 μmoles/hr/mg of protein; Conversion Rate, sec-alcohol to ketone ([12]; growth substrate Propylamine): 4.2 μmoles/hr/mg of protein; Conversion Rate, secondary alcohol to methylketone [13]: 6.2 μmoles/hr/mg Protein; substrate specificity of purified yeast secondary alcohol dehydrogenase (in words) [14]: catalyzed the oxidation; Conversion Rate, secondary alcohol to methylketone [15]: 5.9 μmoles/hr/mg Protein; specific activities [15, 16]: 90 nmoles NAD^+ reduced per min. per mg. protein |
| CCCCC(C)O (stereo not drawn) [2-Hexanol, 2-hexanol] | 1.1 μmoles/hr/mg protein | 0.70 μmoles/hr/mg protein | 0.12 μmoles/hr/mg protein | 0.9 μmoles/hr/mg protein | 0.72 μmoles/hr/mg protein | 0.07 μmoles/hr/mg protein | 0.05 μmoles/hr/mg protein | 0.065 μmoles/hr/mg protein | 0.12 μmoles/hr/mg protein | 0.1 μmoles/hr/mg protein | 1.3 μmoles/hr/mg protein | 1.0 μmoles/hr/mg protein | 0.04 μmoles/hr/mg protein | 0.01 μmoles/hr/mg protein | 0.45 μmoles/hr/mg Protein | 0.54 μmoles/hr/mg of protein | 0.72 μmoles/hr/mg of protein | 0.62 μmoles/hr/mg of protein | 0.70 μmoles/hr/mg of protein | 0.48 μmoles/hr/mg of protein | substrate specificity: rate of oxidation of secondary alcohols (in words) [9]: oxidized at a much slower rate; Conversion Rates, sec-alcohol to methyl ketone ([10]; methanol-grown, obligate): 1.0 μmoles/hr/mg protein; Conversion Rates, sec-alcohol to methyl ketone ([10]; methyl formate-grown): 0.60 μmoles/hr/mg protein; Conversion Rates, sec-alcohol to methyl ketone ([10]; methylamine-grown): 0.09 μmoles/hr/mg protein; Conversion Rates, sec-alcohol to methyl ketone ([11]; methanol-grown, facultative): 0.7 μmoles/hr/mg protein; Conversion Rates, sec-alcohol to methyl ketone ([11]; methyl formate-grown): 0.80 μmoles/hr/mg protein; Conversion Rates, sec-alcohol to methyl ketone ([11]; methylamine-grown): 0.07 μmoles/hr/mg protein; Conversion Rate, sec-alcohol to ketone ([12]; growth substrate Ethanol): 0.72 μmoles/hr/mg of protein; Conversion Rate, sec-alcohol to ketone ([12]; growth substrate Methanol): 0.8 μmoles/hr/mg of protein; Conversion Rate, sec-alcohol to ketone ([12]; growth substrate Methylamine): 0.61 μmoles/hr/mg of protein; Conversion Rate, sec-alcohol to ketone ([12]; growth substrate Methylformate): 0.75 μmoles/hr/mg of protein; Conversion Rate, sec-alcohol to ketone ([12]; growth substrate Propylamine): 0.52 μmoles/hr/mg of protein; Conversion Rate, secondary alcohol to methylketone [13]: 0.60 μmoles/hr/mg Protein; substrate specificity of purified yeast secondary alcohol dehydrogenase (in words) ([14]; spectrophotometric): catalyzed the oxidation; Conversion Rate, secondary alcohol to methylketone [15]: 0.25 μmoles/hr/mg Protein |
